The values that follow come from patent publication US20240150321A1, “PYRAZOLYLSULFONAMIDE COMPOUNDS AND THEIR USE IN THERAPY” (HOTSPOT THERAPEUTICS, INC., priority 2022, published 2024).

The target of test [1] is Avi-tagged FL MALT-1 (Homo sapiens (Human), UniProt Q9UDY8). Kind of test: MALT-1 Fluorogenic Peptide Cleavage Assay (MALT1 inhibition assay). It counts as biochemical. The conditions noted are these: Ac-LRSR-AMC peptide substrate, 30 min pre-incubation, 90 min reaction at room temperature. Put shortly: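 Full-length Avi-tagged human MALT-1 (40 nM working stock) pre-incubated 30 min at RT with compound in 25 mM HEPES pH 6.89, 660 mM sodium citrate, 1 mM TCEP, […], 0.05% CHAPS, 2% DMSO. Ac-LRSR-AMC added at Km (50 μM working stock) or 10×Km (280 μM working stock); 90 min at RT, AMC fluorescence (ex 342/em 441 nm), IC50 from % inhibition curves.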
Chain of Avi-tagged FL MALT-1 (Q9UDY8 whole entry): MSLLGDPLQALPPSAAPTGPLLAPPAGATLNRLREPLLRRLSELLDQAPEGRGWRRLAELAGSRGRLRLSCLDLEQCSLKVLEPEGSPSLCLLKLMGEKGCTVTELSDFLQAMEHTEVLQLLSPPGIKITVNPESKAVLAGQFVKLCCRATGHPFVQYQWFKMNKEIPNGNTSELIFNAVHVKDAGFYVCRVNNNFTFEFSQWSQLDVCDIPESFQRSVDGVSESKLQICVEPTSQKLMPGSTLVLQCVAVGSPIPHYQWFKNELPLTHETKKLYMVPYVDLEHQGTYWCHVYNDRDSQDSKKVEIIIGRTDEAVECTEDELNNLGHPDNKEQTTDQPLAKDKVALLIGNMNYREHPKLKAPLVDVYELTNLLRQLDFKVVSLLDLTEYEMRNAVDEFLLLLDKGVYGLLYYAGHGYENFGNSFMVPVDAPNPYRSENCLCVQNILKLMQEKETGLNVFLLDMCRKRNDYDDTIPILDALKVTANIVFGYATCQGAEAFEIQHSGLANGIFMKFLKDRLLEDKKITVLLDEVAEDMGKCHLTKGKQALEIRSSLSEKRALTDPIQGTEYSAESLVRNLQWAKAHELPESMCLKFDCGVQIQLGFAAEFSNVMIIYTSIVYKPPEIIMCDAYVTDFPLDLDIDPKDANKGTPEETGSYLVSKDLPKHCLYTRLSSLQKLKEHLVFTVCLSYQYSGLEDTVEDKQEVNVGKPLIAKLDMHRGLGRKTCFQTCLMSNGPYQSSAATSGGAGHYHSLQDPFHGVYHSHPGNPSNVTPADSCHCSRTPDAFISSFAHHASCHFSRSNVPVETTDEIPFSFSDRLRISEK

For test [2], the system named is NF-kB reporter in Jurkat cells. Put plainly: NF-kB reporter assay in Jurkat cells stimulated with aCD3/aCD28/PMA. Particulars: Homo sapiens, read-out: NF-kB Reporter Assay IC50. It counts as cell-based. Put shortly:
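Jurkat cells (25,000/well, serum-free RPMI) were pre-incubated 1 h at 37° C with serially diluted compound, then stimulated 4 h with aCD3/aCD28/PMA at final […]. NF-kB reporter activity was read by One-Glo luminescence; IC50 values reported.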

Where [3] appears, read: Jurkat cells, 1 hr compound pre-incubation, aCD3/aCD28/PMA stimulation 4 hr, One-Glo readout.

Each structure is given as a SMILES string. Like-named read-outs stand apart in the source and are kept apart here.

As a reminder, the IC50 is the point on the concentration scale where inhibition reaches its midpoint.

In the case of `COC1(c2ccnc(-n3cc(S(=O)(=O)Nc4cccc5cnn(C)c45)cn3)c2)CC2(CC2)C1` [Compound I-484, 1-(4-(5-methoxyspiro[2.3]hexan-5-yl)pyridin-2-yl)-N-(1-methyl-1H-indazol-7-yl)-1H-pyrazole-4-sulfonamide], the IC50 in test [1] was greater than 2.5 µM; in test [2] (setting [3]), less than 0.4 µM.
On to `Cn1ncc2ccc(OC(F)(F)F)c(N(S(=O)(=O)c3cnn(-c4cc(C(F)(F)F)ccn4)c3)S(=O)(=O)c3cnn(-c4cc(C(F)(F)F)ccn4)c3)c21` [Compound I-337, N-[1-methyl-6-(trifluoromethoxy)indazol-7-yl]-1-[4-(trifluoromethyl)pyridin-2-yl]-N-{1-[4-(trifluoromethyl)pyridin-2-yl]pyrazol-4-ylsulfonyl}pyrazole-4-sulfonamide], for which the IC50 in test [1] and in test [2] (setting [3]) was greater than 2.5 µM throughout.
For the compound `COc1ncc2cnn(C)c2c1NS(=O)(=O)c1cnn(-c2cc(N3CC4CC(C4)C3)ccn2)c1` [Compound I-406], the half-inhibitory concentration (IC50) was greater than 2.5 µM in test [1] and less than 0.4 µM in test [2] (setting [3]).
On to `CC[C@](C)(O)c1ccnc(-n2cc(S(=O)(=O)Nc3cccc4cnn(C)c34)cn2)c1` [Compound I-294], for which the IC50 in test [1] was greater than 2.5 µM; in test [2] (setting [3]), less than 0.4 µM.
For `[2H]C([2H])([2H])Oc1ccc2cnn(C)c2c1NS(=O)(=O)c1cnn(-c2cc(C(F)(F)F)ccn2)c1` [Compound I-70, N-(6-(Methoxy-D3)-1-Methyl-1H-Indazol-7-yl)-1-(4-(Trifluoromethyl)Pyridin-2-yl)-1H-Pyrazole-4-Sulfonamide] the same measures were no more than 0.4 µM and less than 0.4 µM.
For `COc1ccc2cnn(C)c2c1NS(=O)(=O)c1cnn(-c2cc(N3CC[C@H](F)C3)ccn2)c1` [Compound I-422] the same measures were greater than 2.5 µM and less than 0.4 µM.
On to `COC(C)(C)c1ccnc(-n2cc(S(=O)(=O)Nc3cccc4cnn(C)c34)cn2)c1` [Compound I-114, 1-(4-(2-Methoxypropan-2-yl)Pyridin-2-yl)-N-(1-Methyl-1H-Indazol-7-yl)-1H-Pyrazole-4-Sulfonamide], for which the IC50 in test [1] was greater than 2.5 µM; in test [2] (setting [3]), less than 0.4 µM.
As to `CN1CC(C)(C)N(c2ccnc(-n3cc(S(=O)(=O)Nc4cccc5cnn(C)c45)cn3)c2)C1=O` [Compound I-333], the results for the IC50 in test [1] and in test [2] (setting [3]) were greater than 2.5 µM and less than 0.4 µM, respectively.
On to `C[C@H]1COC(=O)N1c1ccnc(-n2cc(S(=O)(=O)Nc3cccc4cnn(C)c34)cn2)c1` [Compound I-303], for which the values for the 50% inhibitory concentration (IC50) in test [1] and in test [2] (setting [3]) were greater than 2.5 µM and less than 0.4 µM, respectively.
Take `CCc1ccc2cnn(C)c2c1NS(=O)(=O)c1cnn(-c2cncc(C(F)(F)F)c2)c1` [Compound I-3, N-(6-Ethyl-1-Methyl-1H-Indazol-7-yl)-1-(5-(Trifluoromethyl) Pyridin-3-yl)-1H-Pyrazole-4-Sulfonamide]: the IC50 was no more than 0.4 µM in test [1] and less than 0.4 µM in test [2] (setting [3]).
For `CCc1ccc2c(c(C)nn2C)c1NS(=O)(=O)c1cnn(-c2ccnc(C(F)(F)F)c2)c1` [Compound I-40, N-(5-ethyl-1,3-dimethyl-1H-Indazol-4-yl)-1-(2-(Trifluoromethyl)Pyridin-4-yl)-1H-Pyrazole-4-Sulfonamide], the half-maximal inhibitory concentration (IC50) in test [1] was no more than 0.4 µM; in test [2] (setting [3]) it was 0.4 to 1 µM.
With `COc1ccc2cnn(C)c2c1NS(=O)(=O)c1cnn(-c2cc(C(F)(F)F)ncn2)c1` [Compound I-24, N-(6-Methoxy-1-Methyl-1H-Indazol-7-yl)-1-(6-(Trifluoromethyl)Pyrimidin-4-yl)-1H-Pyrazole-4-Sulfonamid], the IC50 in test [1] and in test [2] (setting [3]) was 0.4 to 1 µM in each case.
Regarding `O=S(=O)(c1cnn(-c2cc(C(F)(F)F)ccn2)c1)N1CCn2ncc3cccc1c32` [Compound I-355, 1-((1-(4-(trifluoromethyl)pyridin-2-yl)-1H-pyrazol-4-yl)sulfonyl)-2,3-dihydro-1H-pyrazolo[1,5,4-de]quinoxaline], the IC50 in test [1] and in test [2] (Jurkat) was greater than 2.5 µM each time.
